The text below walks through data of ChEMBL document CHEMBL1141643, “Synthesis and SAR of novel 1,1-dialkyl-2(1H)-naphthalenones as potent HCV polymerase inhibitors” (Bioorg Med Chem Lett, 2008).

Assay [1] can be described thus: Inhibition of HCV 1a RNA dependent RNA polymerase. Details: species or system Hepacivirus hominis.
The subject of assay [2] is Hepatitis C virus. Description: Inhibition of HCV 1a replication by cell based assay. The assay is classed as functional, organism-based, Hepacivirus hominis.

The term IC50 denotes the concentration at which inhibition is half-maximal. A high value points to weaker potency in that assay. By EC50 is commonly meant the concentration needed to bring the measured effect to its halfway point. A lower EC50 goes with a more potent agent.

`CC(C)(C)CCCCC1(C)C(=O)C(C2=NS(=O)(=O)c3cc(NS(C)(=O)=O)ccc3N2)=C(O)c2ccccc21` (stereo not given) came in with an IC50 in assay [1] of 138 nM.

`CC(C)(C)CCC1(C)C(=O)C(C2=NS(=O)(=O)c3cc(NS(C)(=O)=O)ccc3N2)=C(O)c2ccccc21` (stereo not given) registered a half-maximal inhibitory concentration (IC50) in assay [1] of 10 nM. Further, in assay [2], the concentration giving a half-maximal response (EC50) was 8 nM.

For `CCCCC1(C)C(=O)C(C2=NS(=O)(=O)c3cc(NS(C)(=O)=O)ccc3N2)=C(O)c2ccccc21` (stereo not given), the IC50 in assay [1] turned out to be 15 nM. In assay [2], this molecule returned a concentration for a half-maximal effect (EC50) of 52 nM.

In assay [1], `CCCC1(C)C(=O)C(C2=NS(=O)(=O)c3cc(NS(C)(=O)=O)ccc3N2)=C(O)c2ccccc21` (stereo not given) had an IC50 of 20 nM.

`CCCC1(CCC)C(=O)C(C2=NS(=O)(=O)c3cc(NS(C)(=O)=O)ccc3N2)=C(O)c2ccccc21` had a half-inhibitory concentration (IC50) in assay [1] of 99 nM. In addition, the concentration for a half-maximal effect (EC50) in assay [2] amounted to 603 nM.

`CC(C)CCC1(C)C(=O)C(C2=NS(=O)(=O)c3cc(NS(C)(=O)=O)ccc3N2)=C(O)c2ccccc21` (stereo not given): the concentration for half-maximal inhibition (IC50) in assay [1] was 7 nM. Also, in assay [2], the EC50 was found to be 38 nM.

Take `CCC1(CCC(C)C)C(=O)C(C2=NS(=O)(=O)c3cc(NS(C)(=O)=O)ccc3N2)=C(O)c2ccccc21` (stereo not given): the IC50 in assay [1] came to 17 nM. Also, it took 49 nM to reach a half-maximal effect in assay [2] (EC50).

`CC1(CC2CCCCC2)C(=O)C(C2=NS(=O)(=O)c3cc(NS(C)(=O)=O)ccc3N2)=C(O)c2ccccc21` (stereo not given) came in with an IC50 in assay [1] of 13 nM. Moreover, the EC50 in assay [2] came to 121 nM.

`CC1(CCCC2CCCCC2)C(=O)C(C2=NS(=O)(=O)c3cc(NS(C)(=O)=O)ccc3N2)=C(O)c2ccccc21` (stereo not given) returned a half-maximal inhibitory concentration (IC50) in assay [1] of 791 nM. That is a sub-micromolar value.
